Assay results reported in ChEMBL document CHEMBL1221176, “Actin microfilament aggregation induced by withaferin A is mediated by annexin II” (Nat Chem Biol, 2006).
Active and inactive are the calls of the source. The rule behind the calls is not given here.

How the values were obtained:
[1] = target: Annexin A2 (Homo sapiens) (UniProt P07355); experiment: Inhibition of annexin 2-mediated liposome aggregation after 15 mins by spectrophotometry
Target sequence in this assay (P07355 whole entry): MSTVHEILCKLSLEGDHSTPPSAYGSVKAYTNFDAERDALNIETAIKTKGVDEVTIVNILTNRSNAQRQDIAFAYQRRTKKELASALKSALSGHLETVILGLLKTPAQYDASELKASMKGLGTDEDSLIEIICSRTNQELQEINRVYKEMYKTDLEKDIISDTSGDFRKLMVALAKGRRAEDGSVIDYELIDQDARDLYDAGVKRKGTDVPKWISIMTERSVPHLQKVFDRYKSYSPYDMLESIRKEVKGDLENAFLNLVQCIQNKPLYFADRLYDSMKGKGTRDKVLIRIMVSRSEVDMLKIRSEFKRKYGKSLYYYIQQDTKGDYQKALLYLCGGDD

[2] = target: Annexin A2 (Homo sapiens) (UniProt P07355); experiment: Binding affinity to annexin 2 assessed as inhibition of protein-lipid interaction after 15 mins by coomassine blue staining
Target sequence in this assay (P07355 whole entry): as above

[3] = target: Annexin A2 (Homo sapiens) (UniProt P07355); experiment: Induction of annexin-2-mediated cytotoxicity in human MCF10A cells assessed as cell morphology at 4 uM after 2 hrs by scanning electron microscopy; settings: MCF-10A
Target sequence in this assay (P07355 whole entry, looked up): as the sequence (P07355 whole entry) above

[4] = target: Annexin A2 (Homo sapiens) (UniProt P07355); experiment: Induction of annexin-2-mediated cytotoxicity in human CHP100 cells at 4 uM after 2 hrs by MTT assay; format: cell-based
Target sequence in this assay (P07355 whole entry): as above

Annexin A2 (Bos taurus) [5] = target: Annexin A2 (Bos taurus) (UniProt P04272); experiment: Displacement of biotinyl-withaferin from bovine lung annexin-2 at 40 uM by chemiluminescence assay
CHP100 = experiment: Cytotoxicity against human CHP100 cells assessed as viable cell after 24 hrs by MTT assay; format: functional, cell-based
Annexin A2 (Bos taurus) [6] = target: Annexin A2 (Bos taurus) (UniProt P04272); experiment: Displacement of biotinyl-withaferin from bovine lung annexin 2 at 10 uM by chemiluminescence assay
[7] = target: Annexin A2 (Homo sapiens) (UniProt P07355); experiment: Induction of annexin 2-mediated F-actin disruption in human WI38 cells at 4 uM after 2 hrs by confocal laser scanning microscopy; format: cell-based; settings: WI-38
Target sequence in this assay (P07355 whole entry): as above

HepG2 [8] = experiment: Cytotoxicity against human HepG2 cells harboring annexin 2 after 48 hrs by MTT assay; format: functional, cell-based
Homo sapiens [9] = species on record: Homo sapiens; experiment: Effect on human F-actin pellet formation after 1 hr by SDS-PAGE
[10] = target: Annexin A2 (Homo sapiens) (UniProt P07355); experiment: Displacement of biotinyl-withaferin from annexin-2 in human CHP100 at 0.4 to 4 uM by chemiluminescence assay
Target sequence in this assay (P07355 whole entry): as above

[11] = target: Annexin A2 (Homo sapiens) (UniProt P07355); experiment: Effect on human annexin 2-mediated F-actin bundling assessed as increase in light scattering after 1 hr by SDS-PAGE
Target sequence in this assay (P07355 whole entry): as above

PC-3M = experiment: Cytotoxicity against human PC3M cells assessed as viable cell after 24 hrs by MTT assay; format: functional, cell-based
Annexin A2 (Bos taurus) [12] = target: Annexin A2 (Bos taurus) (UniProt P04272); experiment: Displacement of biotinyl-withaferin from bovine lung annexin-2 at 4 uM by chemiluminescence assay
[13] = target: Annexin A2 (Homo sapiens) (UniProt P07355); experiment: Displacement of biotinyl-withaferin from annexin-2 in human MCF10A at 0.4 to 4 uM by chemiluminescence assay
HepG2 [14] = experiment: Cytotoxicity against human HepG2 cells harboring annexin 2 assessed as rapid shape change and rounding up at 4 uM after 2 hrs; format: functional, cell-based
Homo sapiens [15] = species on record: Homo sapiens; experiment: Effect on human F-actin bundling assessed as light scattering after 1 hr by SDS-PAGE
[16] = target: Annexin A2 (Homo sapiens) (UniProt P07355); experiment: Induction of annexin 2-mediated cytoskeleton aggregate accumulation in human HepG2 cells at 4 uM after 2 hrs by confocal laser scanning microscopy; format: cell-based
Annexin A1 (Bos taurus) = target: T1, Annexin A1 (Bos taurus) (UniProt P46193); experiment: Displacement of biotinyl-withaferin from bovine lung annexin 1 at 10 uM by chemiluminescence assay
T1 sequence (whole entry): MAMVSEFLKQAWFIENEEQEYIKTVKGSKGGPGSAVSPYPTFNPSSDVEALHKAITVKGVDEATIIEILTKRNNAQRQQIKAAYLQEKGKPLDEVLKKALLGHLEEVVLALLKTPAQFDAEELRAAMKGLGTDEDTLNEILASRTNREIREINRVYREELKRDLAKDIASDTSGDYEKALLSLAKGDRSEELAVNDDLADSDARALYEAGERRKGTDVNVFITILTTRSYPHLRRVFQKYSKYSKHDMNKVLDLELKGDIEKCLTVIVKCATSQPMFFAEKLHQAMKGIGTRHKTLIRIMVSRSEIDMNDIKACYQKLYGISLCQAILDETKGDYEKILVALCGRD

[17] = target: Annexin A2 (Homo sapiens) (UniProt P07355); experiment: Induction of annexin 2-mediated F-actin disruption in human HepG2 cells at 4 uM after 2 hrs by confocal laser scanning microscopy; format: cell-based
WI-38 [18] = experiment: Cytotoxicity against human WI38 cells assessed as cell viability pretreated after 16 hrs by MTT assay in presence of 0.5 uM cytochalasin B; format: functional, cell-based
Annexin A5 (Bos taurus) = target: T2, Annexin A5 (Bos taurus) (UniProt P81287); experiment: Displacement of biotinyl-withaferin from bovine lung annexin 5 at 10 uM by chemiluminescence assay
T2 sequence (whole entry): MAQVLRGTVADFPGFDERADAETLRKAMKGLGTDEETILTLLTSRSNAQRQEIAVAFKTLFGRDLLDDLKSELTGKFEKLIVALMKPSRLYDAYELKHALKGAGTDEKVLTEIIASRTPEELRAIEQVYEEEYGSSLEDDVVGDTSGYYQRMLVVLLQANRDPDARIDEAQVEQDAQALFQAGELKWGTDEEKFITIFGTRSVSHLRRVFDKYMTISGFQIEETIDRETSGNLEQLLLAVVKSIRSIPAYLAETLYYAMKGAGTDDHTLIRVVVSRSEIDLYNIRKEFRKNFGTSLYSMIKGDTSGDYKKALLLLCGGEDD

WI-38 [19] = experiment: Cytotoxicity against human WI38 cells assessed as cell viability pretreated after 16 hrs by MTT assay in presence of 1 uM cytochalasin B; format: functional, cell-based
Annexin A4 (Bos taurus) = target: T3, Annexin A4 (Bos taurus) (UniProt P13214); experiment: Displacement of biotinyl-withaferin from bovine lung annexin 4 at 10 uM by chemiluminescence assay
T3 sequence (whole entry): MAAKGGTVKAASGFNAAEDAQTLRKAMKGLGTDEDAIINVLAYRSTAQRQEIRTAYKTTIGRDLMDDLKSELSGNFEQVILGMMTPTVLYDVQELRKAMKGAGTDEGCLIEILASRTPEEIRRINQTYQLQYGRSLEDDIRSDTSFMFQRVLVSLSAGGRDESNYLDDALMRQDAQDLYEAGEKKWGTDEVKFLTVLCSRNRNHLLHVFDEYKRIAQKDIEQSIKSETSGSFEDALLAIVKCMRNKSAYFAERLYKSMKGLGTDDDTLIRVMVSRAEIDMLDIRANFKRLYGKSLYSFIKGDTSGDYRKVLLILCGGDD

Annexin A2 (Bos taurus) [20] = target: Annexin A2 (Bos taurus) (UniProt P04272); experiment: Displacement of biotinyl-withaferin from bovine lung annexin-2 at 0.4 uM by chemiluminescence assay
Annexin A6 (Bos taurus) = target: T4, Annexin A6 (Bos taurus) (UniProt P79134); experiment: Displacement of biotinyl-withaferin from bovine lung annexin 6 at 10 uM by chemiluminescence assay
T4 sequence (whole entry): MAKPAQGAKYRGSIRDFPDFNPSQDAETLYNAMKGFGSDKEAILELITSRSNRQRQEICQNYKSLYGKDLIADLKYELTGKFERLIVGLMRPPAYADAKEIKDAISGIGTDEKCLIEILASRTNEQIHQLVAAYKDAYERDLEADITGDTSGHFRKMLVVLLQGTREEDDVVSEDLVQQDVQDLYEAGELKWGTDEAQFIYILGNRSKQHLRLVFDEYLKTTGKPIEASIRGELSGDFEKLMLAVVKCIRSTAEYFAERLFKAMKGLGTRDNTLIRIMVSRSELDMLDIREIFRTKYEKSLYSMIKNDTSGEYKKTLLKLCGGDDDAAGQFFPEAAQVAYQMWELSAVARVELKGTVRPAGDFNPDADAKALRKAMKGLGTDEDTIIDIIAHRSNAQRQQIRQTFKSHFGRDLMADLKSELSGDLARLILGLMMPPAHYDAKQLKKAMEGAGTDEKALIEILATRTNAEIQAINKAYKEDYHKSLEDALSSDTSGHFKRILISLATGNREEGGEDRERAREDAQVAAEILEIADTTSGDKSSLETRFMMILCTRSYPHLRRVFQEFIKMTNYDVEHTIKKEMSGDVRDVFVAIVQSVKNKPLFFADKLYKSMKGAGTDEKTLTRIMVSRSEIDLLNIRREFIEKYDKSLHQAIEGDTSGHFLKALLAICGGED

Annexin A2 (Bos taurus), sequence (P04272 whole entry): as the sequence (P07355 whole entry) above, with A66E, I160V, P223C, D230E, R245K, R309K counted along it

## CCN1C(=O)C=CC1=O
[1]
  inhibition: Active
[2]
  Activity: Active

## CC1=C(C)C(=O)O[C@H]([C@](C)(O)[C@H]2CC[C@H]3[C@@H]4C[C@H]5O[C@]56[C@@H](O)C=CC(=O)[C@]6(C)[C@H]4CC[C@]23C)C1
[3]
  Activity: inactive
[4]
  Activity: inactive
Annexin A2 (Bos taurus) [5]
  Activity: inactive

## CC1=C(CO)C(=O)O[C@@H]([C@@H](C)[C@H]2CC[C@H]3[C@@H]4C[C@H]5O[C@]56[C@@H](O)C=CC(=O)[C@]6(C)[C@H]4CC[C@]23C)C1
CHP100
  Activity: Active
[3]
  Activity: inactive
Annexin A2 (Bos taurus) [6]
  Activity: Active
[7]
  Activity: Active
HepG2 [8]
  Activity: Toxic
[1]
  inhibition: inactive
Homo sapiens [9]
  Activity: inactive
[10]
  Activity: Active
[2]
  Activity: inactive
[11]
  Activity: Active
PC-3M
  Activity: Active
Annexin A2 (Bos taurus) [12]
  Activity: Active
[13]
  Activity: Active
HepG2 [14]
  Activity: Active
Homo sapiens [15]
  Activity: inactive
[16]
  Activity: Active
Annexin A1 (Bos taurus)
  Activity: inactive
[17]
  Activity: Active
WI-38 [18]
  Activity: inactive
Annexin A2 (Bos taurus) [5]
  Activity: Active
Annexin A5 (Bos taurus)
  Activity: inactive
WI-38 [19]
  Activity: inactive
Annexin A4 (Bos taurus)
  Activity: inactive
Annexin A2 (Bos taurus) [20]
  Activity: Active
Annexin A6 (Bos taurus)
  Activity: inactive
